Results reported in US10370371B2, “Substituted pyrimidine Bmi-1 inhibitors” (PTC Therapeutics, Inc., priority 2013, dated 2019).
pEC50: −log10 of the molar value.

System: Bmi-1 protein
Assay: Sandwich ELISA Assay (Bmi-1 protein level in HT-1080 cells)
Assay type: cell-based
Method: Cell Seeding and Compound Treatment (Day 1):
HT-1080 cells were seeded at 8000 cells/well (50 μL) in 96-well tissue culture plates. After the cells became adherent (3-4 hours), 2× diluted stocks of test compounds in 50 μL DMEM containing 1% DMSO (final DMSO concentration was 0.5%) were added and the plates were incubated at 37° C. under 5% CO2 for 40-48 hours.
ELISA Plate First Antibody Preparation (Day 2):
The First Antibody (Millipore Mouse, monoclonal to mouse Bmi-1, clone F6, catalog #05-637) diluted to 2 μg/mL in PBS was added (100 μL) to each well of a Nunc MaxiSorp 96-well ELISA plate. The plate was covered with a plate seal and allowed to stand overnight.
Cell Lysate Preparation (Day 3):
Fresh Lysis buffer (1×) was prepared on the day of the assay as follows: 1 mM EDTA, 150 mM NaCl, 0.5% Triton-X 100, 10 mM NaF, 20 mM B-Glycerophosphate, 1 mM DTT (in PBS, pH 7.2-7.4) and HALT protease inhibitor cocktail (1×) (Pierce #78410).
Lysis Buffer (1×, 40 μL) was added to each well and the plate was shaken for 5-10 minutes on an orbital shaker to allow cell lysis, then diluent (1% BSA in PBS in 0.5% NP40) (100 μL) was added to each well.
A standard curve was prepared at the following Bmi-1 concentrations: 8000, 4000, 2000, 1000, 500, 250, 125 and 0 pg/mL. The Bmi-1 Recombinant Protein Standard (Novus Biologicals PCGF4 Recombinant Protein (P01), catalog # H00000648-P01) used to prepare the standard curve was stored at −80° C. On first thaw, the Recombinant Protein Standard was diluted to 10 μg/μL in Blocking Buffer (1% BSA in PBS; BSA: Fisher Scientific Catalog #1600-100). Aliquots were taken and refrozen at −80° C. The aliquots may be kept at 4° C. and reused after first thaw, but only within 1-2 weeks. The Recombinant Protein Standard contains a GST-fusion tag that appears at approximately 70 Kda on Western Blot.
The prepared ELISA plate was washed 3× with Wash Buffer (0.05% Tween-20 in PBS). The final wash was removed from the plate and the plate was blotted dry. Blocking Buffer (300 μL) (1% BSA in PBS) was added to each well. The plate was covered with a plate seal and incubated at room temperature for 1 hour. The blocked plate was washed 3× with Wash Buffer, then the final wash was removed and the plate was blotted dry. The previously prepared samples and standards were added (100 μL/well) and the plate was covered with a plate seal and incubated at 4° C. overnight.
The prepared ELISA plate was removed from incubation and allowed to stand at room temperature for 30 minutes, then washed and blotted dry. The Second Antibody (Cell Signaling Rabbit anti-Bmi-1, Cat#2830) diluted to 1:600 in Blocking Buffer was added (100 μL) to each well, except as needed for background control wells. The plate was covered with a plate seal and incubated for 1.5 hrs at room temperature.
The ELISA plate was washed and blotted dry as previously described. The Third Antibody (Cell Signaling HRP conjugated anti-rabbit IgG (CellSignaling, Cat#:7074) diluted to 1:300 in Blocking Buffer was added (100 μL) to each well, except as needed for background control wells. The plate was incubated for 1 hr at room temperature.
The plate was washed and blotted dry, then a previously prepared TMB substrate (TMB substrate kit, Pierce catalog #34021) (prepared by mixing kit reagents 1:1) (100 μL) was added per well. The plate was incubated for 20-30 minutes at room temperature in the dark, then Stop Solution (2 M sulfuric acid in water) (50 μL) was added per well. The plates were read at OD450 (experimental) and OD570 (reference).

Compound	pEC50
Cc1nc2c(F)cccc2n1-c1cc(N)nc(Nc2ccc(C(F)(F)F)cc2)n1 [Cpd 35, 6-(4-fluoro-2-methyl-1H-benzimidazol-1-yl)-N^2-[4-(trifluoromethyl)phenyl]pyrimidine-2,4-diamine]	7.00 to 8.00
Cc1nc2ccccc2n1-c1cc(Cl)nc(Nc2ccc(C(F)(F)F)nc2)n1 [Cpd 36, 4-chloro-6-(2-methyl-1H-benzimidazol-1-yl)-N-[6-(trifluoromethyl)pyridin-3-yl]pyrimidin-2-amine]	5.52 to 7.00
Cc1nc2ccccc2n1-c1cc(N)nc(Nc2ccc(C(F)(F)F)nc2)n1 [Cpd 37, 6-(2-methyl-1H-benzimidazol-1-yl)-N^2-[6-(trifluoromethyl)pyridin-3-yl]pyrimidine-2,4-diamine]	7.00 to 8.00
Cc1nc2ccc(F)cc2n1-c1cc(Cl)nc(Nc2ccc(C(F)(F)F)nc2)n1 [Cpd 38, 4-chloro-6-(6-fluoro-2-methyl-1H-benzimidazol-1-yl)-N-[6-(trifluoromethyl)pyridin-3-yl]pyrimidin-2-amine]	5.52 to 7.00
Cc1nc2cc(F)ccc2n1-c1cc(N)nc(Nc2ccc(C(F)(F)F)nc2)n1 [Cpd 39, 6-(5-fluoro-2-methyl-1H-benzimidazol-1-yl)-N^2-[6-(trifluoromethyl)pyridin-3-yl]pyrimidine-2,4-diamine]	7.00 to 8.00
Cc1nc2ccc(F)cc2n1-c1cc(N)nc(Nc2ccc(C(F)(F)F)nc2)n1 [Cpd 40, 6-(6-fluoro-2-methyl-1H-benzimidazol-1-yl)-N^2-[6-(trifluoromethyl)pyridin-3-yl]pyrimidine-2,4-diamine]	7.00 to 8.00
Cc1nc2ccc(Br)cc2n1-c1cc(N)nc(Nc2ccc(C(F)(F)F)cc2)n1 [Cpd 41, 6-(6-bromo-2-methyl-1H-benzimidazol-1-yl)-N^2-[4-(trifluoromethyl)phenyl]pyrimidine-2,4-diamine]	7.00 to 8.00
Cc1ccc2nc(C)n(-c3cc(N)nc(Nc4ccc(C(F)(F)F)cc4)n3)c2c1 [Cpd 42, 6-(2,6-dimethyl-1H-benzimidazol-1-yl)-N^2-[4-(trifluoromethyl)phenyl]pyrimidine-2,4-diamine]	7.00 to 8.00
CCc1nc2cc(F)ccc2n1-c1cc(N)nc(Nc2ccc(C(F)(F)F)nc2)n1 [Cpd 43, 6-(2-ethyl-5-fluoro-1-benzimidazol-1-yl)-N^2-[6-(trifluoromethyl)pyridin-3-yl]pyrimidine-2,4-diamine]	7.00 to 8.00
CCc1nc2ccc(F)cc2n1-c1cc(N)nc(Nc2ccc(C(F)(F)F)nc2)n1 [Cpd 44, 6-(2-ethyl-6-fluoro-1H-benzimidazol-1-yl)-N^2-[6-(trifluoromethyl)pyridin-3-yl]pyrimidine-2,4-diamine]	7.00 to 8.00
Cc1nc2ccc(Cl)cc2n1-c1cc(N)nc(Nc2ccc(C(F)(F)F)cc2)n1 [Cpd 45, 6-(6-chloro-2-methyl-1H-benzimidazol-1-yl)-N^2-[4-(trifluoromethyl)phenyl]pyrimidine-2,4-diamine]	7.00 to 8.00
Cc1nc2ccc(Cl)cc2n1-c1cc(O)nc(Nc2ccc(C(F)(F)F)cc2)n1 [Cpd 46, 6-(6-chloro-2-methyl-1H-benzimidazol-1-yl)-2-{[4-(trifluoromethyl)phenyl]amino}pyrimidin-4-ol]	5.52 to 7.00
Cc1nc2cc(Cl)ccc2n1-c1cc(N)nc(Nc2ccc(C(F)(F)F)cc2)n1 [Cpd 47, 6-(5-chloro-2-methyl-1H-benzimidazol-1-yl)-N^2-[4-(trifluoromethyl)phenyl]pyrimidine-2,4-diamine]	5.52 to 7.00
Cc1nc2ncc(F)cn2c1-c1cc(N)nc(Nc2ccc(C(F)(F)F)cc2)n1 [Cpd 48, 6-(6-fluoro-2-methylimidazo[1,2-a]pyrimidin-3-yl)-N^2-[4-(trifluoromethyl)phenyl]pyrimidine-2,4-diamine]	7.00 to 8.00
Cc1nc2cc(F)cc(F)c2n1-c1cc(N)nc(Nc2ccc(OC(F)F)cc2)n1 [Cpd 49, N^2-[4-(difluoromethoxy)phenyl]-6-(5,7-difluoro-2-methyl-1H-benzimidazol-1-yl)pyrimidine-2,4-diamine]	5.52 to 7.00
Nc1cc(-c2c(C(F)(F)F)nc3ccc(F)cn23)nc(Nc2ccc(C(F)(F)F)cc2)n1 [Cpd 50, 6-[6-fluoro-2-(trifluoromethyl)imidazo[1,2-a]pyridin-3-yl]-N^2-[4-(trifluoromethyl)phenyl]pyrimidine-2,4-diamine]	7.00 to 8.00
Cc1nc2c(F)cccc2n1-c1cc(N)nc(Nc2ccc(OC(F)F)cc2)n1 [Cpd 51, N^2-[4-(difluoromethoxy)phenyl]-6-(4-fluoro-2-methyl-1H-benzimidazol-1-yl)pyrimidine-2,4-diamine]	7.00 to 8.00
Cc1cc(Nc2nc(N)cc(-n3c(C)nc4c(F)cccc43)n2)ccc1C(F)(F)F [Cpd 52, 6-(4-fluoro-2-methyl-1H-benzimidazol-1-yl)-N^2-[3-methyl-4-(trifluoromethyl)phenyl]pyrimidine-2,4-diamine]	5.52 to 7.00
Cc1ccc2nc(C)n(-c3cc(N)nc(Nc4ccc(C(F)(F)F)c(C)c4)n3)c2c1 [Cpd 53, 6-(2,6-dimethyl-1H-benzimidazol-1-yl)-N^2-[3-methyl-4-(trifluoromethyl)phenyl]pyrimidine-2,4-diamine]	7.00 to 8.00
Cc1ccc2nc(C)n(-c3cc(N)nc(Nc4ccc(OC(F)F)cc4)n3)c2c1 [Cpd 54, N^2-[4-(difluoromethoxy)phenyl]-6-(2,6-dimethyl-1H-benzimidazol-1-yl)pyrimidine-2,4-diamine]	8.00 to 9.00
Nc1cc(-c2c(C(F)(F)F)nc3ccc(F)cn23)nc(Nc2ccc(OC(F)F)cc2)n1 [Cpd 55, N^2-[4-(difluoromethoxy)phenyl]-6-[6-fluoro-2-(trifluoromethyl)imidazo[1,2-a]pyridin-3-yl]pyrimidine-2,4-diamine]	7.00 to 8.00
Cc1nc2ccccc2n1-c1nc(Nc2ccc(C(F)(F)F)cc2)nc(N)c1F [Cpd 56, 5-fluoro-6-(2-methyl-1H-benzimidazol-1-yl)-N^2-[4-(trifluoromethyl)phenyl]pyrimidine-2,4-diamine]	5.52 to 7.00
CCc1nc2ccccc2n1-c1nc(Nc2ccc(C(F)(F)F)cc2)nc(N)c1F [Cpd 57, 6-(2-ethyl-1H-benzimidazol-1-yl)-5-fluoro-N^2-[4-(trifluoromethyl)phenyl]pyrimidine-2,4-diamine]	7.00 to 8.00
Cc1nc2ccc(F)cc2n1-c1nc(Nc2ccc(C(F)(F)F)cc2)nc(N)c1F [Cpd 58, 5-fluoro-6-(6-fluoro-2-methyl-1H-benzimidazol-1-yl)-N^2-[4-(trifluoromethyl)phenyl]pyrimidine-2,4-diamine]	5.52 to 7.00
CCc1nc2ccc(F)cc2n1-c1nc(Nc2ccc(C(F)(F)F)cc2)nc(N)c1F [Cpd 59, 6-(2-ethyl-6-fluoro-1H-benzimidazol-1-yl)-5-fluoro-N^2-[4-(trifluoromethyl)phenyl]pyrimidine-2,4-diamine]	5.52 to 7.00
Cc1nc2c(F)cc(F)cc2n1-c1cc(N)nc(Nc2ccc(OC(F)F)cc2)n1 [Cpd 60, N^2-[4-(difluoromethoxy)phenyl]-6-(4,6-difluoro-2-methyl-1H-benzimidazol-1-yl)pyrimidine-2,4-diamine]	7.00 to 8.00
Nc1cc(-n2c(C3CC3)nc3ccccc32)nc(Nc2ccc(C(F)(F)F)cc2)n1 [Cpd 61, 6-(2-cyclopropyl-1H-benzimidazol-1-yl)-N^2-[4-(trifluoromethyl)phenyl]pyrimidine-2,4-diamine]	7.00 to 8.00
Cc1nc2ncccc2n1-c1nc(Nc2ccc(C(F)(F)F)cc2)nc(N)c1F [Cpd 62, 5-fluoro-6-(2-methyl-1H-imidazo[4,5-b]pyridin-1-yl)-N^2-[4-(trifluoromethyl)phenyl]pyrimidine-2,4-diamine]	5.52 to 7.00
Nc1cc(-n2c(C3CC3)nc3cc(F)c(F)cc32)nc(Nc2ccc(C(F)(F)F)cc2)n1 [Cpd 64, 6-(2-cyclopropyl-5,6-difluoro-1H-benzimidazol-1-yl)-N^2-[4-(trifluoromethyl)phenyl]pyrimidine-2,4-diamine]	7.00 to 8.00
